Measurements reported in ChEMBL document CHEMBL1697821, “Development of a phospholipidosis database and predictive quantitative structure-activity relationship (QSAR) models” (Toxicol Mech Methods, 2008).

These compounds were tested on Phospholipidosis (assay: Literature-mined public compounds from Kruhlak et al phospholipidosis modelling dataset).
`CC[C@]1(O)CC[C@H]2[C@@H]3CCC4=CCCC[C@@H]4[C@H]3CC[C@@]21C` was tested, and the Phospholipidosis was “Negative: based on the absence of positive reported data from WMDD”. In the case of `CC(=O)O.C[C@H]1C[C@@H]2[C@H]([C@@H](O)C[C@@]3(C)[C@H]2CC[C@]3(O)C(=O)CO)[C@@]2(C)C=CC(=O)C=C12`, the Phospholipidosis is reported as “Negative: based on the absence of positive reported data from WMDD”. For `CC[C@@H](C(N)=O)N1CCCC1=O`, the Phospholipidosis was “Negative: based on the absence of positive reported data from WMDD”. `COc1ccc(CC2c3cc(OC)c(OC)cc3CC[N+]2(C)CCC(=O)OCCCCCOC(=O)CC[N+]2(C)CCc3cc(OC)c(OC)cc3C2Cc2ccc(OC)c(OC)c2)cc1OC` (stereo not given) was tested, and the Phospholipidosis was “Negative: based on the absence of positive reported data from WMDD”. In the case of `CN(C)CCN(Cc1cccs1)c1ccccn1`, the Phospholipidosis is reported as “Negative: confirmed by electron microscopy”. For `CN1CCN(Cc2nc3cccc4c3c([n+]2[O-])-c2ccccc2-4)CC1`, the Phospholipidosis was “Positive: weak inducer based on presence of foamy macrophages and cytoplasmic vacuolations”. For `CN(C)CCC=C1c2ccccc2CCc2c(Cl)cccc21`, the Phospholipidosis was “Positive: strong inducer confirmed by electron microscopy”. In the case of `CN(C)CCC=C1c2ccccc2C=Cc2c(Cl)cccc21`, the Phospholipidosis is reported as “Positive: strong inducer confirmed by electron microscopy”. With `CCN(CC)CCn1nc2c3c(c(C)ccc31)Sc1cc(Cl)ccc1-2` the Phospholipidosis was “Positive: strong inducer confirmed by electron microscopy”. For `CCN(CC)Cc1cc(Nc2ccnc3cc(Cl)ccc23)ccc1O.Cl`, the Phospholipidosis was “Positive: weak inducer based on presence of foamy macrophages and cytoplasmic vacuolations”. For `CC1(C)OCC(C(CS(=O)(=O)c2ccc(Oc3cccc(OC(F)(F)F)c3)cc2)NC=O)O1` (stereo not given), the Phospholipidosis was “Negative: confirmed by electron microscopy”. With `CC1(C)C(=O)NC(=O)N1CC(COc1ccc(-c2ccc(OC(F)(F)F)cc2)cc1)NC=O` (stereo not given) the Phospholipidosis was “Negative: confirmed by electron microscopy”. With `CC1(C)C(=O)NC(=O)N1CC(N)COc1ccc(-c2ccc(OC(F)(F)F)cc2)cc1` (stereo not given) the Phospholipidosis was “Positive: weak inducer based on presence of foamy macrophages and cytoplasmic vacuolations”. For `CCCN[C@@H]1[C@H](C)[C@@H](O)[C@](C)(O)[C@@H](CC)OC(=O)[C@H](C)[C@@H](O[C@H]2C[C@@](C)(OC)[C@@H](O)[C@H](C)O2)[C@H](C)[C@@H](O[C@@H]2O[C@H](C)C[C@H](N(C)C)[C@H]2O)[C@](C)(O)C[C@H]1C`, the Phospholipidosis was “Positive: weak inducer based on presence of foamy macrophages and cytoplasmic vacuolations”. `CCCNCCc1ccc(NS(=O)(=O)c2ccc(OC(F)(F)F)cc2)cc1` was tested, and the Phospholipidosis was “Positive: strong inducer confirmed by electron microscopy”. `CCC(c1ccc2cc(OC)ccc2c1)C(C)(C)C(=O)O` (stereo not given) was tested, and the Phospholipidosis was “Negative: based on the absence of positive reported data from WMDD”. In the case of `NC[C@H]1Cc2ccc(F)cc2[C@@H](c2ccccc2)O1`, the Phospholipidosis is reported as “Positive: strong inducer confirmed by electron microscopy”. `Clc1ccccc1CNC[C@H]1CC[C@H](CNCc2ccccc2Cl)CC1` was tested, and the Phospholipidosis was “Positive: strong inducer confirmed by electron microscopy”. With `CC1(C)OC[C@H]([C@@H](CS(=O)(=O)c2ccc(Oc3ccc(OC(F)(F)F)cc3)cc2)N(O)C=O)O1` the Phospholipidosis was “Negative: confirmed by electron microscopy”. With `NCCc1cc(O)c(O)c(O)c1` the Phospholipidosis was “Positive: strong inducer confirmed by electron microscopy”. `CCC[C@@H](NC(=O)N1C(=O)C(CC)(CC)[C@@H]1Oc1ccc(C(=O)N2CCN(C)CC2)cc1)c1ccc2c(c1)OCO2` was tested, and the Phospholipidosis was “Positive: weak inducer based on presence of foamy macrophages and cytoplasmic vacuolations”. With `O=P(O)(O)OCC(O)CO` (stereo not given) the Phospholipidosis was “Negative: based on the absence of positive reported data from WMDD”. For `CC1(C)NC(=O)N(C[C@@H](COc2ccc(-c3ccc(OC(F)(F)F)cc3)cc2)N(O)C=O)C1=O`, the Phospholipidosis was “Negative: confirmed by electron microscopy”. `C[n+]1ccc(-c2cc[n+](C)cc2)cc1` was tested, and the Phospholipidosis was “Positive: strong inducer confirmed by electron microscopy”. With `N[C@@H](Cc1ccc(N(CCCl)CCCl)cc1)C(=O)O` the Phospholipidosis was “Negative: based on the absence of positive reported data from WMDD”.
